Source: US12570650B2, “6-substituted pyridazine compounds as SMARCA2 and/or SMARCA4 degraders” (Aurigene Oncology Limited, priority 2020, dated 2026)

Experiments:
[1] = molecular target: T1, SMARCA2 (Homo sapiens, UniProt P51531); experiment: SMARCA2 degradation in VCaP cells by Western blot; format: cell-based; details: 16 hours
T1 construct: Determination of SMARCA2 and SMARCA4 Degradation in VCaP Cells by Western Blot; endogenous in cells; host or cells: VCaP (ATCC CRL-2876)
Procedure: Example-P2: Determination of SMARCA2 and SMARCA4 Degradation in VCaP Cells by Western Blot
VCaP (ATCC CRL-2876) was plated in 6 well plates using complete Dulbecco's Modified Eagle's Medium. On the third day, compounds of present invention were added to cells from 10 mM stocks made in DMSO (Sigma Cat no. D2650). Each concentration of compound was tested with DMSO not exceeding final percentage of 0.3 in the cells. Cells were incubated with the compound for 16 hours followed by harvesting with 1×RIPA lysis buffer (Thermo Fischer, catalogue number #89900) containing protease inhibitor cocktail (Sigma catalogue number #P-8340). Equal amount of protein was loaded on SDS PAGE gel for electrophoresis. Western blot was carried out for detection of either SMARCA2 (Cell signalling technologies, catalogue number #11966) or SMARCA4 antibody (Cell signalling technologies, catalogue number #52251). Beta-Tubulin antibody (Cell signalling technologies, catalogue number #86298) was used as loading control. Percentage of SMARCA2 or SMARCA4 degradation was calculated using formula % Degradation=100−(normalized band intensity in treated sample/normalized band intensity in DMSO sample)*100.

[2] = molecular target: T2, SMARCA4 (Homo sapiens, UniProt P51532); experiment: SMARCA4 degradation in VCaP cells by Western blot; format: cell-based; details: 16 hours
T2 construct: Determination of SMARCA2 and SMARCA4 Degradation in VCaP Cells by Western Blot; endogenous in cells; host or cells: VCaP (ATCC CRL-2876)
Procedure: On the third day, compounds of present invention were added to cells from 10 mM stocks made in DMSO (Sigma Cat no. D2650). Each concentration of compound was tested with DMSO not exceeding final percentage of 0.3 in the cells. […] Equal amount of protein was loaded on SDS PAGE gel for electrophoresis. […] Percentage of SMARCA2 or SMARCA4 degradation was calculated using formula % Degradation=100−(normalized band intensity in treated sample/normalized band intensity in DMSO sample)*100.

T1 sequence (P51531 whole entry): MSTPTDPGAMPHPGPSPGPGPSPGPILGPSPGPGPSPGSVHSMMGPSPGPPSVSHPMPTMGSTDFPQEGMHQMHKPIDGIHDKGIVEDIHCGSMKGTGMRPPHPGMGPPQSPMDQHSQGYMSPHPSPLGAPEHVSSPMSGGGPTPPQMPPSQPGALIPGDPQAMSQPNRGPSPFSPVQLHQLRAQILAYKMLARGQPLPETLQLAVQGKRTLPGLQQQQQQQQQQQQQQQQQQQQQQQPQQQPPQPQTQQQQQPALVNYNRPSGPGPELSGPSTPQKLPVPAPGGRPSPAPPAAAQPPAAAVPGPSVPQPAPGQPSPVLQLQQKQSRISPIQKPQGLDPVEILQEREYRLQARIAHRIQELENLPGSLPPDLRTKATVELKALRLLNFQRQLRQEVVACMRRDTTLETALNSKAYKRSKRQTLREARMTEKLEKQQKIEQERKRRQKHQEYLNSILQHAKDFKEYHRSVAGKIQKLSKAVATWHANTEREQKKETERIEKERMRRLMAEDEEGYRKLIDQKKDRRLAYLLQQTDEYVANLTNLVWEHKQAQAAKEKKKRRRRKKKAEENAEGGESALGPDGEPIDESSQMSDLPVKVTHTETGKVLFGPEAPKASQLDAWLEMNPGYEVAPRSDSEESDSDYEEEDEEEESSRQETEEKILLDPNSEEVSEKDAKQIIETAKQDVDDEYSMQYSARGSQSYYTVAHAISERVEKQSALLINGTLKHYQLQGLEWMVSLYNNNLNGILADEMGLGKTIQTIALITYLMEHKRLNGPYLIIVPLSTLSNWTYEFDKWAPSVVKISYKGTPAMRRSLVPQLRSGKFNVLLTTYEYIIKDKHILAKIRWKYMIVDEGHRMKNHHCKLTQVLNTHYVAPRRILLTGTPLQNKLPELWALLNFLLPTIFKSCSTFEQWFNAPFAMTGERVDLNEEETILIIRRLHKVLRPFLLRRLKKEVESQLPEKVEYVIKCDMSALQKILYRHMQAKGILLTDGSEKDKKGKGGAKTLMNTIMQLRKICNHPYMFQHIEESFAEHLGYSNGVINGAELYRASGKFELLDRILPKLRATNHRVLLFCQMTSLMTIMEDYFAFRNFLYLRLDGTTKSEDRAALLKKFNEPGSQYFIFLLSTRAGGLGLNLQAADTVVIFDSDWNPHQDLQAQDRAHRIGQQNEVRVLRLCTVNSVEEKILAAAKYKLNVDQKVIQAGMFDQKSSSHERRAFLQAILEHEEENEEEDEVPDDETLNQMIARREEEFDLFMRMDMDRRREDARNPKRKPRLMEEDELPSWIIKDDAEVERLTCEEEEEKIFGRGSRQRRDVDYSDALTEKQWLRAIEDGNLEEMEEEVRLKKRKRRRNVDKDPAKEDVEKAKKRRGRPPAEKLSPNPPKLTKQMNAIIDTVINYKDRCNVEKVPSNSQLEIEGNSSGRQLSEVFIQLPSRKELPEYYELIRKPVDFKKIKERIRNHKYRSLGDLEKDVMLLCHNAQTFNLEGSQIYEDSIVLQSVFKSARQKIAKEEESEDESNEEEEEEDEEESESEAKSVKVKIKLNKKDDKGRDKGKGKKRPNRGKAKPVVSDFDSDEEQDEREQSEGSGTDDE
T2 sequence (P51532 whole entry): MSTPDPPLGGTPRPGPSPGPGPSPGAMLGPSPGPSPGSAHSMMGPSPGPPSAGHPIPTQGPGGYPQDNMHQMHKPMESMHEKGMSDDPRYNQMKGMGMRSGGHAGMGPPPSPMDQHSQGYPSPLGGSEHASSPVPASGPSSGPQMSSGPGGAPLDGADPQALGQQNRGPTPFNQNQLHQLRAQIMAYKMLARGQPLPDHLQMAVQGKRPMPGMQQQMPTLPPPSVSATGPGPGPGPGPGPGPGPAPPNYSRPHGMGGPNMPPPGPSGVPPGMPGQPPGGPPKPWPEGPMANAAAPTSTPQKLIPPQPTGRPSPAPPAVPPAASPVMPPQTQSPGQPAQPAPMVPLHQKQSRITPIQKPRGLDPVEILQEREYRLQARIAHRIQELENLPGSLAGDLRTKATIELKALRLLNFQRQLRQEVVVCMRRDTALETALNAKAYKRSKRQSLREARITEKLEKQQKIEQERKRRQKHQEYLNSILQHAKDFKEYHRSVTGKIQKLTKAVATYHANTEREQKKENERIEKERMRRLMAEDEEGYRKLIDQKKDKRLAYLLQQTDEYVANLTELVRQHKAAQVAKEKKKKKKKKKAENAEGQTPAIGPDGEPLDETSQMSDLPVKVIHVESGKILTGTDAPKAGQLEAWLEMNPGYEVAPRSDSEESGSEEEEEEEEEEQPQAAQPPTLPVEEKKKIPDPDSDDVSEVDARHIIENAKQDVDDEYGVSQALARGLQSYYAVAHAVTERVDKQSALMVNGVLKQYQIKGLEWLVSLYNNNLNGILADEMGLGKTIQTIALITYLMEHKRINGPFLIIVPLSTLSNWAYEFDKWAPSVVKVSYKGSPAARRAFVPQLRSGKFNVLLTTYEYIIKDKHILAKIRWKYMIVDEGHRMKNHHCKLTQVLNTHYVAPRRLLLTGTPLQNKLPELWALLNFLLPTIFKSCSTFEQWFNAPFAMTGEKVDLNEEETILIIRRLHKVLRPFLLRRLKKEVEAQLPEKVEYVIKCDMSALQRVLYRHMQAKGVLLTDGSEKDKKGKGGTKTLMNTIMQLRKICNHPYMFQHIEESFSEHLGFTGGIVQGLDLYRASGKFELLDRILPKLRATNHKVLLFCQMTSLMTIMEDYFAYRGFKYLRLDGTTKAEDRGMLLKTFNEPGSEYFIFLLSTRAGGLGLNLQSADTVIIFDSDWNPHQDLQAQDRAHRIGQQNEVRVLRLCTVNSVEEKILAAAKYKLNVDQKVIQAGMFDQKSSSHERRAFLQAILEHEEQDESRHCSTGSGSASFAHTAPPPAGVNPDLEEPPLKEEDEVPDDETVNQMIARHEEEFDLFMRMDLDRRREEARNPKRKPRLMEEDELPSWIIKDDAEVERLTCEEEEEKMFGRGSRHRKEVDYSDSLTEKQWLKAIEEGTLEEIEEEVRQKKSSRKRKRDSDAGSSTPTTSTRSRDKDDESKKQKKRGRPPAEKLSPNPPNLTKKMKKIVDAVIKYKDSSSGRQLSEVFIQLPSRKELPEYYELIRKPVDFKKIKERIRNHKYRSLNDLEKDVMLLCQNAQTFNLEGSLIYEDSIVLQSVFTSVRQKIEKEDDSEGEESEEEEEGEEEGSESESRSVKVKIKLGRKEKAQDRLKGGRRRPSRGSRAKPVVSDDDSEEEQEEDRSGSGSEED

| Percent degradation (at 100 nM) SMARCA2 [1] [%] | Percent degradation (at 100 nM) SMARCA4 [2] [%] | Compound |
| --- | --- | --- |
| 0 | 30 | Cc1ncsc1-c1ccc([C@H](C)NC(=O)[C@@H]2C[C@@H](O)CN2C(=O)C(c2cc(-c3ccc(-c4cnnc(-c5ccccc5O)c4)cc3)no2)C(C)C)cc1 (mixture of isomers) [Compound 1, (2S,4R)-4-hydroxy-1-(2-(3-(4-(6-(2-hydroxyphenyl)pyridazin-4-yl)phenyl)isoxazol-5-yl)-3-methylbutanoyl)-N-((S)-1-(4-(4-methylthiazol-5-yl)phenyl)ethyl)pyrrolidine-2-carboxamide] |
| 22 | 6 | Cc1ncsc1-c1ccc([C@H](C)NC(=O)[C@@H]2C[C@@H](O)CN2C(=O)C(c2cc(OCCN(C)c3ccc(-c4cnnc(-c5ccccc5O)c4)cc3)no2)C(C)C)cc1 (mixture of isomers) [Compound 44, (2S,4R)-4-hydroxy-1-(2-(3-(2-((4-(6-(2-hydroxyphenyl)pyridazin-4-yl)phenyl)(methyl)amino)ethoxy)isoxazol-5-yl)-3-methylbutanoyl)-N-((S)-1-(4-(4-methylthiazol-5-yl)phenyl)ethyl)pyrrolidine-2-carboxamide] |
| 40 | 0 | Cc1ncsc1-c1ccc([C@H](C)NC(=O)[C@@H]2C[C@@H](O)CN2C(=O)[C@@H](NC(=O)C(C)N2CCN(c3ccc(-c4cnnc(-c5ccccc5O)c4)cc3)CC2)C(C)(C)C)cc1 (single isomer, unassigned) [Compound 29] |
| 20 | 47 | Cc1ncsc1-c1ccc([C@H](C)NC(=O)[C@@H]2C[C@@H](O)CN2C(=O)[C@@H](NC(=O)CN2CCN(c3ccc(-c4cnnc(Cl)c4)cc3)CC2)C(C)(C)C)cc1 [Compound 3, (2S,4R)-1-((S)-2-(2-(4-(4-(6-chloropyridazin-4-yl)phenyl)piperazin-1-yl)acetamido)-3,3-dimethylbutanoyl)-4-hydroxy-N-((S)-1-(4-(4-methylthiazol-5-yl)phenyl)ethyl)pyrrolidine-2-carboxamide] |
| 81 | 0 | Cc1ncsc1-c1ccc([C@H](C)NC(=O)[C@@H]2C[C@@H](O)CN2C(=O)[C@@H](NC(=O)CN2CCN(c3ccc(-c4cnnc(-c5cc(F)ccc5O)c4)cc3)CC2)C(C)(C)C)cc1 [Compound 4, (2S,4R)-1-((S)-2-(2-(4-(4-(6-(5-fluoro-2-hydroxyphenyl)pyridazin-4-yl)phenyl)piperazin-1-yl)acetamido)-3,3-dimethylbutanoyl)-4-hydroxy-N-((S)-1-(4-(4-methylthiazol-5-yl)phenyl)ethyl)pyrrolidine-2-carboxamide] |
| 84 | 20 | Cc1ncsc1-c1ccc([C@H](C)NC(=O)[C@@H]2C[C@@H](O)CN2C(=O)[C@@H](NC(=O)CCN2CCN(c3ccc(-c4cnnc(-c5ccccc5O)c4)cc3)CC2)C(C)(C)C)cc1 [Compound 8, (2S,4R)-4-hydroxy-1-((S)-2-(3-(4-(4-(6-(2-hydroxyphenyl)pyridazin-4-yl)phenyl)piperazin-1-yl)propanamido)-3,3-dimethylbutanoyl)-N-((S)-1-(4-(4-methylthiazol-5-yl)phenyl)ethyl)pyrrolidine-2-carboxamide] |
| 0 | 14 | Cc1ncsc1-c1ccc([C@H](C)NC(=O)[C@@H]2C[C@@H](O)CN2C(=O)[C@@H](NC(=O)CN2CCN(c3ccc(-c4cnnc(-c5cnn(C)c5)c4)cc3)CC2)C(C)(C)C)cc1 [Compound 9, (2S,4R)-1-((S)-3,3-dimethyl-2-(2-(4-(4-(6-(1-methyl-1H-pyrazol-4-yl)pyridazin-4-yl)phenyl)piperazin-1-yl)acetamido)butanoyl)-4-hydroxy-N-((S)-1-(4-(4-methylthiazol-5-yl)phenyl)ethyl)pyrrolidine-2-carboxamide] |
| 88 | 0 | Cc1ncsc1-c1ccc([C@H](C)NC(=O)[C@@H]2C[C@@H](O)CN2C(=O)[C@@H](NC(=O)CN2CCC(Oc3ccc(-c4cnnc(-c5ccccc5O)c4)cc3)CC2)C(C)(C)C)cc1 [Compound 19, (2S,4R)-4-hydroxy-1-((S)-2-(2-(4-(4-(6-(2-hydroxyphenyl)pyridazin-4-yl)phenoxy)piperidin-1-yl)acetamido)-3,3-dimethylbutanoyl)-N-((S)-1-(4-(4-methylthiazol-5-yl)phenyl)ethyl)pyrrolidine-2-carboxamide] |
| 89 | 0 | Cc1ncsc1-c1ccc([C@H](C)NC(=O)[C@@H]2C[C@@H](O)CN2C(=O)[C@@H](NC(=O)CN2CCN(c3ccc(-c4cnnc(-c5ccccc5O)c4)cc3F)CC2)C(C)(C)C)cc1 [Compound 26, (2S,4R)-1-((S)-2-(2-(4-(2-fluoro-4-(6-(2-hydroxyphenyl)pyridazin-4-yl)phenyl)piperazin-1-yl)acetamido)-3,3-dimethylbutanoyl)-4-hydroxy-N-((S)-1-(4-(4-methylthiazol-5-yl)phenyl)ethyl)pyrrolidine-2-carboxamide] |
| 69 | 0 | Cc1ncsc1-c1ccc([C@H](C)NC(=O)[C@@H]2C[C@@H](O)CN2C(=O)[C@@H](NC(=O)CN2CCC(n3cc(-c4cnnc(-c5ccccc5O)c4)cn3)CC2)C(C)(C)C)cc1 [Compound 33, (2S,4R)-4-hydroxy-1-((S)-2-(2-(4-(4-(6-(2-hydroxyphenyl)pyridazin-4-yl)-1H-pyrazol-1-yl)piperidin-1-yl)acetamido)-3,3-dimethylbutanoyl)-N-((S)-1-(4-(4-methylthiazol-5-yl)phenyl)ethyl)pyrrolidine-2-carboxamide] |
| 81 | 58 | Cc1ncsc1-c1ccc([C@H](C)NC(=O)[C@@H]2C[C@@H](O)CN2C(=O)[C@@H](NC(=O)CCCCOc2ccc(-c3cnnc(-c4ccccc4O)c3)cc2)C(C)(C)C)cc1 [Compound 34, (2S,4R)-4-hydroxy-1-((S)-2-(5-(4-(6-(2-hydroxyphenyl)pyridazin-4-yl)phenoxy)pentanamido)-3,3-dimethylbutanoyl)-N-((S)-1-(4-(4-methylthiazol-5-yl)phenyl)ethyl)pyrrolidine-2-carboxamide] |
| 45 | 26 | Cc1ncsc1-c1ccc([C@H](C)NC(=O)[C@@H]2C[C@@H](O)CN2C(=O)[C@@H](NC(=O)CN2CCN(c3ccc(-c4cnnc(-c5ccccc5C(F)F)c4)cc3)CC2)C(C)(C)C)cc1 [Compound 37, (2S,4R)-1-((S)-2-(2-(4-(4-(6-(2-(difluoromethyl)phenyl)pyridazin-4-yl)phenyl)piperazin-1-yl)acetamido)-3,3-dimethylbutanoyl)-4-hydroxy-N-((S)-1-(4-(4-methylthiazol-5-yl)phenyl)ethyl)pyrrolidine-2-carboxamide] |
| 46 | 17 | Cc1ncsc1-c1ccc([C@H](C)NC(=O)[C@@H]2C[C@@H](O)CN2C(=O)[C@@H](NC(=O)CN2CCN(c3ccc(-c4cnnc(-c5cccc6cc[nH]c56)c4)cc3)CC2)C(C)(C)C)cc1 [Compound 39, (2S,4R)-1-((S)-2-(2-(4-(4-(6-(1H-indol-7-yl)pyridazin-4-yl)phenyl)piperazin-1-yl)acetamido)-3,3-dimethylbutanoyl)-4-hydroxy-N-((S)-1-(4-(4-methylthiazol-5-yl)phenyl)ethyl)pyrrolidine-2-carboxamide] |
| 6 | 3 | Cc1ncsc1-c1ccc([C@H](C)NC(=O)[C@@H]2C[C@@H](O)CN2C(=O)[C@@H](NC(=O)CN2CCN(c3ccc(-c4cnnc(-c5cccc6ccoc56)c4)cc3)CC2)C(C)(C)C)cc1 [Compound 40, (2S,4R)-1-((S)-2-(2-(4-(4-(6-(benzofuran-7-yl)pyridazin-4-yl)phenyl)piperazin-1-yl)acetamido)-3,3-dimethylbutanoyl)-4-hydroxy-N-((S)-1-(4-(4-methylthiazol-5-yl)phenyl)ethyl)pyrrolidine-2-carboxamide] |
| 12 | 22 | Cc1ncsc1-c1ccc([C@H](C)NC(=O)[C@@H]2C[C@@H](O)CN2C(=O)[C@@H](NC(=O)CN2CCN(c3ccc(-c4cnnc(-c5cccc6cn[nH]c56)c4)cc3)CC2)C(C)(C)C)cc1 [Compound 41, (2S,4R)-1-((S)-2-(2-(4-(4-(6-(1H-indazol-7-yl)pyridazin-4-yl)phenyl)piperazin-1-yl)acetamido)-3,3-dimethylbutanoyl)-4-hydroxy-N-((S)-1-(4-(4-methylthiazol-5-yl)phenyl)ethyl)pyrrolidine-2-carboxamide] |
